{
  "source": "patent US11708348B2",
  "about": "“Protease inhibitors for treatment of coronavirus infections” (The Scripps Research Institute, priority 2021, dated 2023)",
  "data": [
    {"test_system": "SARS-CoV-2 strain USA-WA1/2020", "test": "microbe, parasite or virus in culture", "assay_type": "cell-based", "settings": "Severe acute respiratory syndrome coronavirus 2, HeLa-ACE2, 24 h, HeLa-ACE2 cells, SARS-CoV-2 infection, 24 h; cells given as a bound; read-out: EC50, uM (Hela)", "units": {"EC50": "µM"}, "values": [
      {"smiles": "CC(C)C[C@H](NC(=O)OCCc1cccc(Cl)c1)C(=O)N[C@@H](C[C@@H]1CCNC1=O)C(=O)COc1c(F)c(F)cc(F)c1F", "note": "[Compound 138, 3-chlorophenethyl ((S)-4-methyl-1-oxo-1-(((S)-3-oxo-1-((S)-2-oxopyrrolidin-3-yl)-4-(2,3,5,6-tetrafluorophenoxy)butan-2-yl)amino)pentan-2-yl)carbamate]", "EC50": "> 1"}
    ]},
    {"test_system": "SARS-CoV-2 strain USA-WA1/2020", "test": "microbe, parasite or virus in culture", "assay_type": "cell-based", "settings": "Severe acute respiratory syndrome coronavirus 2, HeLa-ACE2, 24 h, HeLa-ACE2 cells, SARS-CoV-2 infection, 24 h; class symbols; read-out: EC50, uM (Hela)", "units": {"EC50": "µM"}, "values": [
      {"smiles": "O=C1NCC[C@H]1C[C@H](NC(=O)[C@@H]1[C@H]2CCC[C@H]2CN1C(=O)C1OCCC1(F)F)C(=O)COC(F)(F)F", "note": "(stereo partly drawn) [Compound 323, (1S,3aR,6aS)-2-(3,3-difluorotetrahydrofuran-2-carbonyl)-N-((S)-3-oxo-1-((S)-2-oxopyrrolidin-3-yl)-4-(trifluoromethoxy)butan-2-yl)octahydrocyclo-penta[c]pyrrole-1-carboxamide]", "EC50": "0.05 to 0.2"},
      {"smiles": "O=C(Nc1ccccc1F)C(=O)N1CCC[C@H]1C(=O)N[C@@H](C[C@@H]1CCNC1=O)C(=O)COc1c(F)c(F)cc(F)c1F", "note": "[Compound 91, (S)-1-(2-((2-fluorophenyl)amino)-2-oxoacetyl)-N-((S)-3-oxo-1-((S)-2-oxopyrrolidin-3-yl)-4-(2,3,5,6-tetrafluorophenoxy)butan-2-yl)pyrrolidine-2-carboxamide]", "EC50": "0.5 to 1"},
      {"smiles": "CC[C@@H]1C[C@]1(NC(=O)c1cc2cc(F)ccc2[nH]1)C(=O)N[C@@H](C[C@@H]1CCNC1=O)C(=O)COC(F)(F)F", "note": "[Compound 261, N-((1R,2R)-2-ethyl-1-(((S)-3-oxo-1-((S)-2-oxopyrrolidin-3-yl)-4-(trifluoromethoxy)butan-2-yl)carbamoyl)cyclopropyl)-5-fluoro-1H-indole-2-carboxamide]", "EC50": "0.5 to 1"},
      {"smiles": "COc1cccc2[nH]c(C(=O)N[C@@H](CC(C)C)C(=O)N[C@@H](C[C@@H]3CCNC3=O)C(=O)COc3c(F)c(F)cc(F)c3F)cc12", "note": "[Compound 1, 4-methoxy-N-((S)-4-methyl-1-oxo-1-(((S)-3-oxo-1-((S)-2-oxopyrrolidin-3-yl)-4-(2,3,5,6-tetrafluorophenoxy)butan-2-yl)amino)pentan-2-yl)-1H-indole-2-carboxamide]", "EC50": "0.05 to 0.2"},
      {"smiles": "C=CC[C@H](NC(=O)C(=O)Nc1ccccc1)C(=O)N[C@@H](C[C@@H]1CCNC1=O)C(=O)COc1c(F)c(F)cc(F)c1F", "note": "[Compound 58, N1-((S)-1-oxo-1-(((S)-3-oxo-1-((S)-2-oxopyrrolidin-3-yl)-4-(2,3,5,6-tetrafluorophenoxy)butan-2-yl)amino)pent-4-en-2-yl)-N2-phenyloxalamide]", "EC50": "0.2 to 0.5"},
      {"smiles": "O=C1NCC[C@H]1C[C@H](NC(=O)[C@@H]1CC2(CC2)CN1C(=O)C12CC(C(F)(F)F)(CO1)C2)C(=O)COC(F)(F)F", "note": "[Compound 317, (6S)—N-[(2S)-3-oxo-1-[(3S)-2-oxopyrrolidin-3-yl]-4-(trifluoromethoxy)butan-2-yl]-5-[4-(trifluoromethyl)-2-oxabicyclo[2.1.1]hexane-1-carbonyl]-5-azaspiro[2.4]heptane-6-carboxamide]", "EC50": "< 0.05"}
    ]},
    {"test_system": "SARS-CoV-2 strain USA-WA1/2020", "test": "microbe, parasite or virus in culture", "assay_type": "cell-based", "settings": "Severe acute respiratory syndrome coronavirus 2, HeLa-ACE2, 24 h, HeLa-ACE2 cells, SARS-CoV-2 infection, 24 h; read-out: EC50, uM (Hela)", "units": {"EC50": "µM"}, "values": [
      {"smiles": "CC1(C)[C@@H]2[C@@H](C(=O)N[C@@H](C[C@@H]3CCNC3=O)C(=O)COC(F)(F)F)N(C(=O)[C@@H](O)c3ccccc3)C[C@@H]21", "note": "[Compound 416, (1R,2S,5S)-3-((S)-2-hydroxy-2-phenylacetyl)-6,6-dimethyl-N—((S)-3-oxo-1-((S)-2-oxopyrrolidin-3-yl)-4-(trifluoromethoxy)butan-2-yl)-3-azabicyclo[3.1.0]hexane-2-carboxamide]", "EC50": "< 0.05"},
      {"smiles": "O=C(NCC(F)(F)F)C(=O)N1CC2(CC2)C[C@H]1C(=O)N[C@@H](C[C@@H]1CCNC1=O)C(=O)COC(F)(F)F", "note": "[Compound 570]", "EC50": "0.05 to 0.2"},
      {"smiles": "C[C@@H](C[C@@H](O)C(=O)N1CC2(CC2)C[C@H]1C(=O)N[C@@H](C[C@@H]1CCNC1=O)C(=O)COC(F)(F)F)C(F)(F)F", "note": "[Compound 427, (S)-N-((S)-3-oxo-1-((S)-2-oxopyrrolidin-3-yl)-4-(trifluoromethoxy)butan-2-yl)-5-((2R,4S)-5,5,5-trifluoro-2-hydroxy-4-methylpentanoyl)-5-azaspiro[2.4]heptane-6-carboxamide]", "EC50": "< 0.05"},
      {"smiles": "CC1(C)[C@@H]2[C@@H](C(=O)N[C@H](C[C@@H]3CCNC3=O)C(=O)COC(F)(F)F)N(C(=O)[C@H](O)c3ccccc3)C[C@@H]21", "note": "[Compound 715, (1R,2S,5S)-3-((R)-2-hydroxy-2-phenylacetyl)-6,6-dimethyl-N-((R)-3-oxo-1-((S)-2-oxopyrrolidin-3-yl)-4-(trifluoromethoxy)butan-2-yl)-3-azabicyclo[3.1.0]hexane-2-carboxamide]", "EC50": "0.05 to 0.2"},
      {"smiles": "CC1(C)[C@@H]2[C@@H](C(=O)N[C@@H](C[C@@H]3CCNC3=O)C(=O)COC(F)(F)F)N(C(=O)C(=O)NC3(C(F)(F)F)CC3)C[C@@H]21", "note": "[Compound 475, (1R,2S,5S)-6,6-dimethyl-N-((S)-3-oxo-1-((S)-2-oxopyrrolidin-3-yl)-4-(trifluoromethoxy)butan-2-yl)-3-(2-oxo-2-((1-(trifluoromethyl)-cyclopropyl)amino)acetyl)-3-zabicyclo[3.1.0]hexane-2-carboxamide]", "EC50": "0.05 to 0.2"},
      {"smiles": "O=C1NCC[C@H]1C[C@H](NC(=O)[C@@H]1CC2(CC2)CN1C(=O)C1CCC(F)(F)C1)C(=O)COC(F)(F)F", "note": "(stereo partly drawn) [Compound 720, (6S)-5-(3,3-difluorocyclopentane-1-carbonyl)-N-((S)-3-oxo-1-((S)-2-oxopyrrolidin-3-yl)-4-(trifluoromethoxy)butan-2-yl)-5-azaspiro[2.4]heptane-6-carboxamide]", "EC50": "< 0.05"},
      {"smiles": "COc1cccc(NC(=O)C(=O)N2CC3(CC3)C[C@H]2C(=O)N[C@@H](C[C@@H]2CCNC2=O)C(=O)COC(F)(F)F)c1F", "note": "[Compound 599, (S)-5-(2-((2-fluoro-3-methoxyphenyl)amino)-2-oxoacetyl)-N-((S)-3-oxo-1-((S)-2-oxopyrrolidin-3-yl)-4-(trifluoromethoxy)butan-2-yl)-5-azaspiro[2.4]heptane-6-carboxamide]", "EC50": "< 0.05"},
      {"smiles": "CCCCCC(=O)N1CC2(CC2)C[C@H]1C(=O)N[C@@H](C[C@@H]1CCNC1=O)C(=O)COC(F)(F)F", "note": "[Compound 708, (S)-5-hexanoyl-N-((S)-3-oxo-1-((S)-2-oxopyrrolidin-3-yl)-4-(trifluoromethoxy)butan-2-yl)-5-azaspiro[2.4]heptane-6-carboxamide]", "EC50": "0.05 to 0.2"},
      {"smiles": "COC(=O)N[C@H](C(=O)N1CC2(CC2)C[C@H]1C(=O)N[C@@H](C[C@@H]1CCNC1=O)C(=O)COC(F)(F)F)C(C)(C)C", "note": "[Compound 433, methyl ((S)-3,3-dimethyl-1-oxo-1-((S)-6-(((S)-3-oxo-1-((S)-2-oxopyrrolidin-3-yl)-4-(trifluoromethoxy)butan-2-yl)carbamoyl)-5-azaspiro[2.4]heptan-5-yl)butan-2-yl)carbamate]", "EC50": "0.05 to 0.2"},
      {"smiles": "O=C(CC(C(F)(F)F)C(F)(F)F)C(=O)N1CC2(CC2)C[C@H]1C(=O)N[C@@H](C[C@@H]1CCNC1=O)C(=O)COC(F)(F)F", "note": "[Compound 743, (S)-N-((S)-3-oxo-1-((S)-2-oxopyrrolidin-3-yl)-4-(trifluoromethoxy)butan-2-yl)-5-(5,5,5-trifluoro-2-oxo-4-(trifluoromethyl)pentanoyl)-5-azaspiro[2.4]heptane-6-carboxamide]", "EC50": "< 0.05"}
    ]}
  ]
}
